Source: patent US20240360122A1, “POLYMORPHIC FORMS AND SALTS OF A GLP-1R AGONIST” (Terns (Suzhou) Biotechnology Co., Ltd., priority 2023, published 2024)
Entries after “also recorded” stand apart in the source; their conditions may differ. Counter-ions that a name gives are not always drawn. Like-named read-outs stand apart in the source and are kept apart here.

Assay: Kinetic solubility in water and bio-relevant media (SGF, FaSSIF, FeSSIF) at 37° C.
Type: physicochemical
Conditions: for S: Solubility: calculated by freeform; for FC: Form change: residual solids by XRPD; for solubility at 2 h: highest solubility
How it was run: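 Compound rolled at 37 °C (~25 rpm) in water, SGF (pH 1.8, NaCl, Triton X-100), FaSSIF (pH 6.5 phosphate, SIF powder) or FeSSIF (pH 5.0 acetate, SIF powder). Samples at 1, 2, 4 and 24 h were centrifuged and 0.45 μm-filtered; filtrate concentration and pH measured, residual solid checked by XRPD.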

N#Cc1ccc(COc2cccc(C3CCN(Cc4nc5ccc(C(=O)O)cc5n4Cc4cncs4)CC3)n2)c(F)c1 [Meglumine salt Type A]
S: Solubility (FaSSIF, 37° C., 1 hr): 0.90 mg/mL
FC: Form change (FaSSIF, 37° C., 1 hr): Yes
S: Solubility (FaSSIF, 37° C., 2 hrs): 1.3 mg/mL
FC: Form change (FaSSIF, 37° C., 2 hrs): Yes
S: Solubility (FaSSIF, 37° C., 4 hrs): 0.72 mg/mL
FC: Form change (FaSSIF, 37° C., 4 hrs): Yes
S: Solubility (FaSSIF, 37° C., 24 hrs): 0.07 mg/mL
FC: Form change (FaSSIF, 37° C., 24 hrs): Yes
solubility at 2 h (FaSSIF, 37 °C, pH 6.5, fassif, thermodynamic from solid, FaSSIF, 37° C., read-out: solubility in FaSSIF): 1300 µg/mL
S: Solubility (FeSSIF, 37° C., 1 hr): 0.17 mg/mL
FC: Form change (FeSSIF, 37° C., 1 hr): Yes
S: Solubility (FeSSIF, 37° C., 2 hrs): 0.17 mg/mL
FC: Form change (FeSSIF, 37° C., 2 hrs): Yes
S: Solubility (FeSSIF, 37° C., 4 hrs): 0.086 mg/mL
FC: Form change (FeSSIF, 37° C., 4 hrs): Yes
S: Solubility (FeSSIF, 37° C., 24 hrs): 0.027 mg/mL
FC: Form change (FeSSIF, 37° C., 24 hrs): Yes
S: Solubility (H2O, 37° C., 1 hr): >8.6 mg/mL
S: Solubility (H2O, 37° C., 2 hrs): >8.9 mg/mL
S: Solubility (H2O, 37° C., 4 hrs): >8.3 mg/mL
S: Solubility (H2O, 37° C., 24 hrs): 7.0 mg/mL
FC: Form change (H2O, 37° C., 24 hrs): Yes
solubility compared with the other selected salts and Freeform Type C (H2O, SGF and FaSSIF, 37° C.): higher solubility than other salts and Freeform Type C; also recorded: higher solubility in H2O, SGF and FaSSIF
S: Solubility (SGF, 37° C., 1 hr): 0.38 mg/mL
FC: Form change (SGF, 37° C., 1 hr): Yes
S: Solubility (SGF, 37° C., 2 hrs): 0.72 mg/mL
FC: Form change (SGF, 37° C., 2 hrs): Yes
S: Solubility (SGF, 37° C., 4 hrs): 0.68 mg/mL
FC: Form change (SGF, 37° C., 4 hrs): Yes
S: Solubility (SGF, 37° C., 24 hrs): 0.29 mg/mL
FC: Form change (SGF, 37° C., 24 hrs): Yes
solubility at 2 h (SGF, 37 °C, pH 1.8, simulated gastric fluid, thermodynamic from solid, SGF, 37° C., read-out: solubility in SGF): 720 µg/mL
form change of residual solids (XRPD) after solubility test (all the media (H2O, SGF, FaSSIF, FeSSIF), after 24 hrs): form change was observed
Kinetic Solubility (in H2O, SGF and FaSSIF, comparison among selected salts and Freeform Type C): 1) In H2O, SGF and FaSSIF, Meglumine salt Type A exhibited higher solubility than other salts and Freeform Type C;
solubility (water, 37 °C, thermodynamic from solid, H2O, at 1, 2 and 4 hrs): > 8300 µg/mL
solubility (water, 37 °C, thermodynamic from solid, H2O, throughout the 24-hour process): ≥ 7000 µg/mL
solubility at 24 h (water, 37 °C, water, thermodynamic from solid, H2O, 37° C., at 24 hrs, read-out: solubility in H2O): 7000 µg/mL
